Legend:
rgRSV224 virus = experiment: Antiviral activity: rgRSV224 (GFP) replication in HeLa cells; format: cell-based, respiratory syncytial virus (RSV); conditions: human respiratory syncytial virus, HeLa, 72 h, read-out: RSV HELA EC50 (μM), rgRSV224 virus (MOI=1), HeLa cells, GFP expression three days post-virus exposure
in vitro = conditions: human, TOX HELA CC50 (μM)
Description: Black 384-well clear-bottom microtiter plates (Corning, Amsterdam, The Netherlands) were filled via acoustic drop ejection using the echo liquid handler (Labcyte, Sunnyvale, Calif.). 200 nL of compound stock solutions (100% DMSO) were transferred to the assay plates. 9 serial 4-fold dilutions of compound were made, creating per quadrant the same compound concentration. The assay was initiated by adding 10 μL of culture medium to each well (RPMI medium without phenol red, 10% FBS-heat inactivated, 0.04% gentamycin (50 mg/mL). All addition steps are done by using a multidrop dispenser (Thermo Scientific, Erembodegem, Belgium). Next, rgRSV224 virus (MOI=1) diluted in culture medium was added to the plates. rgRSV224 virus is an engineered virus that includes an additional GFP gene (Hallak L K, Spillmann D, Collins P L, Peeples M E. Glycosaminoglycan sulfation requirements for respiratory syncytial virus infection; Journal of virology (2000), 74(22), 10508-13) and was in-licensed from the NIH (Bethesda, Md., USA). Finally, 20 μL of a HeLa cell suspension (3,000 cells/well) were plated. Medium, virus- and mock-infected controls were included in each test. The wells contain 0.05% DMSO per volume. Cells were incubated at 37° C. in a 5% CO2 atmosphere. Three days post-virus exposure, viral replication was quantified by measuring GFP expression in the cells by an in house developed MSM laser microscope (Tibotec, Beerse, Belgium). The EC50 was defined as the 50% inhibitory concentration for GFP expression. In parallel, compounds were incubated for three days in a set of white 384-well microtiter plates (Corning) and the cytotoxicity of compounds in HeLa cells was determined by measuring the ATP content of the cells using the ATPlite kit (Perkin Elmer, Zaventem, Belgium) according to the manufacturer's instructions. The CC50 was defined as the 50% concentration for cytotoxicity.

Compound `C[C@@H]1c2ccsc2CCN1C(=O)c1cc(C2CC2)n2nc(-c3ccc(N4CC[C@@H](CC(N)=O)C4)cc3F)cc2n1` (single isomer, unassigned) [Compound 43, 2-[(3S)-1-(4-{7-Cyclopropyl-5-[(4*R)-4-methyl-4,5,6,7-tetrahydro-thieno[3,2-c]pyridine-5-carbonyl]pyrazolo[1,5-a]pyrimidin-2-yl}-3-fluorophenyl)pyrrolidin-3-yl]acetamide] has an EC50 (rgRSV224 virus) of 0.017 µM, a CC50 at 3 days (in vitro) of 29.8 µM and a melting point of 214.36 °C.
For `C[C@@H]1c2ccccc2CCN1C(=O)c1cc(C2CC2)n2nc(-c3ccc(N4CC[C@@H](S(C)(=N)=O)C4)cc3F)cc2n1` (stereo partly drawn) [Compound 79, [(3R)-1-(4-{7-Cyclopropyl-5-[(1R)-1-methyl-1,2,3,4-tetrahydroisoquinoline-2-carbonyl]-pyrazolo[1,5-a]pyrimidin-2-yl}-3-fluorophenyl)pyrrolidin-3-yl](imino)methyl-λ^6-sulfanone], the EC50 (rgRSV224 virus) was 0.476 µM, the CC50 at 3 days (in vitro) was 13.3 µM and the melting point was 285.54 °C.
With `C[C@@H]1c2ccccc2CCN1C(=O)c1cc(C2CC2)n2nc(-c3ccc(N4CC[C@@H](S(C)(=O)=O)C4)cc3F)cc2n1` [Compound 17, (1R)-2-(7-Cyclopropyl-2-{2-fluoro-4-[(3R)-3-methanesulfonylpyrrolidin-1-yl]phenyl}-pyrazolo[1,5-a]pyrimidine-5-carbonyl)-1-methyl-1,2,3,4-tetrahydroisoquinoline] the EC50 (rgRSV224 virus) was 0.05 µM, the CC50 at 3 days (in vitro) was over 100 µM and the melting point was 258.48 °C.
`C[C@@H]1c2ccccc2CCN1C(=O)c1cc(C2CC2)n2nc(-c3ccc(N4CCCC(O)C4)cc3F)cc2n1` (stereo partly drawn) [Compound 75, 1-(4-{7-Cyclopropyl-5-[(1R)-1-methyl-1,2,3,4-tetrahydroisoquinoline-2-carbonyl]-pyrazolo[1,5-a]pyrimidin-2-yl}-3-fluorophenyl)piperidin-3-ol] showed an EC50 (rgRSV224 virus) of 0.076 µM, a CC50 at 3 days (in vitro) of over 100 µM and a melting point of 197.51 °C.
Compound `C[C@@H]1c2ccccc2CCN1C(=O)c1cc(-c2cncc(F)c2)n2nc(-c3ccc(N4CC[C@H](C(N)=O)C4)cc3F)cc2n1` [Compound 90, (3S)-1-{3-Fluoro-4-[7-(5-fluoropyridin-3-yl)-5-[(1R)-1-methyl-1,2,3,4-tetrahydro-isoquinoline-2-carbonyl]pyrazolo[1,5-a]pyrimidin-2-yl]phenyl}pyrrolidine-3-carboxamide] has an EC50 (rgRSV224 virus) of 0.046 µM and a melting point of 269.08 °C.
In the case of `CC(=O)N[C@@H]1CCN(c2ccc(-c3cc4nc(C(=O)N5CCc6ccccc6[C@H]5C)cc(C5CC5)n4n3)c(F)c2)C1` [Compound 7, N-[(3R)-1-(4-{7-Cyclopropyl-5-[(1R)-1-methyl-1,2,3,4-tetrahydroisoquinoline-2-carbonyl]pyrazolo[1,5-a]pyrimidin-2-yl}-3-fluorophenyl)pyrrolidin-3-yl]acetamide], the EC50 (rgRSV224 virus) is reported as 0.037 µM, the CC50 at 3 days (in vitro) is reported as 71.5 µM and the melting point is reported as 189 °C.
With `C[C@@H]1c2cc(F)ccc2CCN1C(=O)c1cc(C2CC2)n2nc(-c3ccc(N4CC[C@H](C(N)=O)C4)cc3F)cc2n1` (single isomer, unassigned) [Compound 47, (3S)-1-(4-{7-Cyclopropyl-5-[(1*R)-7-fluoro-1-methyl-1,2,3,4-tetrahydroisoquinoline-2-carbonyl]pyrazolo[1,5-a]pyrimidin-2-yl}-3-fluorophenyl)pyrrolidine-3-carboxamide] the EC50 (rgRSV224 virus) was 0.009 µM, the CC50 at 3 days (in vitro) was 41.5 µM and the melting point was 245.69 °C.
In the case of `C[C@@H]1c2ccccc2CCN1C(=O)c1cc(C2CC2)n2nc(-c3ccc(N4CC(CC(N)=O)C4)cc3F)cc2n1` [Compound 65, 2-[1-(4-{7-Cyclopropyl-5-[(1R)-1-methyl-1,2,3,4-tetrahydroisoquinoline-2-carbonyl]-pyrazolo[1,5-a]pyrimidin-2-yl}-3-fluorophenyl)azetidin-3-yl]acetamide], the EC50 (rgRSV224 virus) is reported as 0.048 µM, the CC50 at 3 days (in vitro) is reported as 39.1 µM and the melting point is reported as 211.64 °C.
In the case of `COCCOc1cc(N2CC[C@H](C(N)=O)C2)nc(F)c1-c1cc2nc(C(=O)N3CCc4ccccc4[C@H]3C)cc(C3CC3)n2n1` [Compound 87, (3S)-1-(5-{7-Cyclopropyl-5-[(1R)-1-methyl-1,2,3,4-tetrahydroisoquinoline-2-carbonyl]-pyrazolo[1,5-a]pyrimidin-2-yl}-6-fluoro-4-(2-methoxyethoxy)pyridin-2-yl)pyrrolidine-3-carboxamide], the EC50 (rgRSV224 virus) is reported as 0.215 µM, the CC50 at 3 days (in vitro) is reported as 47.4 µM and the melting point is reported as 152.28 °C.
`C[C@@H]1c2ccccc2CCN1C(=O)c1cc(C2CC2)n2nc(-c3ccc(N4CCC(S(N)(=O)=O)C4)cc3F)cc2n1` (stereo partly drawn) [Compound 19, 1-(4-{7-Cyclopropyl-5-[(1R)-1-methyl-1,2,3,4-tetrahydroisoquinoline-2-carbonyl]-pyrazolo[1,5-a]pyrimidin-2-yl}-3-fluorophenyl)pyrrolidine-3-sulfonamide] gave an EC50 (rgRSV224 virus) of 0.041 µM, a CC50 at 3 days (in vitro) of 72.3 µM and a melting point of 308.63 °C.
Compound `C[C@@H]1c2ccccc2CCN1C(=O)c1cc(C2CC2)n2nc(-c3ccc(N4C[C@H](C(N)=O)C[C@H]4C)cc3F)cc2n1` (single isomer, unassigned) [Compound 32, (3*R,5*R)-1-(4-{7-cyclopropyl-5-[(1R)-1-methyl-1,2,3,4-tetrahydroisoquinoline-2-carbonyl]pyrazolo[1,5-a]pyrimidin-2-yl}-3-fluorophenyl)-5-methylpyrrolidine-3-carboxamide] has an EC50 (rgRSV224 virus) of 0.06 µM, a CC50 at 3 days (in vitro) of 32.1 µM and a melting point of 297.57 °C.
With `C[C@@H]1c2ccccc2CCN1C(=O)c1cc(C2CC2)n2nc(-c3ccc(N4CC(O)C4)cc3F)cc2n1` [Compound 67, 1-(4-{7-Cyclopropyl-5-[(1R)-1-methyl-1,2,3,4-tetrahydroisoquinoline-2-carbonyl]-pyrazolo[1,5-a]pyrimidin-2-yl}-3-fluorophenyl)azetidin-3-ol] the EC50 (rgRSV224 virus) was 0.03 µM, the CC50 at 3 days (in vitro) was 36.5 µM and the melting point was 205.81 °C.
With `CNC(=O)[C@H]1CCN(c2cc(F)c(-c3cc4nc(C(=O)N5CCc6ccccc6[C@H]5C)cc(C5CC5)n4n3)cn2)C1` [Compound 53, (3S)-1-(5-{7-Cyclopropyl-5-[(1R)-1-methyl-1,2,3,4-tetrahydroisoquinoline-2-carbonyl]-pyrazolo[1,5-a]pyrimidin-2-yl}-4-fluoropyridin-2-yl)-N-methylpyrrolidine-3-carboxamide] the EC50 (rgRSV224 virus) was 0.035 µM, the CC50 at 3 days (in vitro) was over 100 µM and the melting point was 228.33 °C.
`C[C@@H]1c2ccccc2CCN1C(=O)c1cc(C2CC2)n2nc(-c3ccc(N4CCC5(COC5)C4)cc3F)cc2n1` [Compound 5, (1R)-2-[7-Cyclopropyl-2-(2-fluoro-4-{2-oxa-6-azaspiro[3.4]octan-6-yl}phenyl)pyrazolo[1,5-a]pyrimidine-5-carbonyl]-1-methyl-1,2,3,4-tetrahydroisoquinoline] gave an EC50 (rgRSV224 virus) of 0.118 µM, a CC50 at 3 days (in vitro) of over 25 µM and a melting point of 220.25 °C.
With `C[C@@H]1c2ccccc2CCN1C(=O)c1cc(C2CC2)n2nc(-c3ccc(N4CCC(C#N)C4)cc3F)cc2n1` (stereo partly drawn) [Compound 1, 1-(4-{7-Cyclopropyl-5-[(1R)-1-methyl-1,2,3,4-tetrahydroisoquinoline-2-carbonyl]-pyrazolo[1,5-a]pyrimidin-2-yl}-3-fluorophenyl)pyrrolidine-3-carbonitrile] the EC50 (rgRSV224 virus) was 0.085 µM and the CC50 at 3 days (in vitro) was over 100 µM.
